Measurements as given in patent US10556021B2, “Nanocarriers for drug delivery” (THE REGENTS OF THE UNIVERSITY OF CALIFORNIA, priority 2008, dated 2020).

Legend:
[1] = tested on: intraperitoneal SKOV3-luc ovarian tumor; experiment: Biodistribution after i.p. injection, xenograft model III; assay type: in vivo, mice; conditions: up to 72 h
Protocol: PEG^5000-CA8 (polymer 7) nanoparticles biodistribution after i.p. injection in intraperitoneal SKOV3-luc ovarian tumor bearing mice was investigated. Mice were injected i.p. with free DiD or DiD-loaded PEG^5000-CA8 nanoparticles. […] At 72 h, the peritoneal cavity was exposed and scanned with the Kodak imaging station, displaying DiD-labeled PEG^5000-CA8 nanoparticles localization on the surface of peritoneal tumor nodules (FIGS. 38A-38B).

[2] = tested on: SKOV-3 ovarian cancer xenografts; experiment: Size effect on biodistribution, NIR imaging, xenograft model II; set-up: species or system nude mice; conditions: in vivo NIR imaging
Protocol: To study the effects of particle size on the in vivo biodistribution of nanoparticles, the same concentration of DiD (a hydrophobic near infra-red (NIR) cyanine dye, 1 mg/mL) was co-loaded with PTX (4 mg/mL, 4 mg/mL and 3 mg/mL, respectively) into 20 mg/mL micelle solutions of PEG^2000-CA4, PEG^5000-CA8 and PEG^3000-CA4, to form three fluorescence labeled micelle preparations with distinct sizes of 17 nm, 64 nm and 154 nm, respectively (FIG. 35A). Each of these three sizes of DiD-loaded micelles was incubated with Raw 264.7 macrophage cells for 2 h. The cells were then washed three times with PBS, fixed with 70% ethanol and observed under confocal fluorescence microscope. […] NIR fluorescent imaging was used to evaluate the in vivo biodistribution of the three micelles with different sizes in nude mice bearing the SKOV-3 ovarian cancer xenografts (subcutaneous and intraperitoneal implants). The mice were injected via the tail vein with the same volume of the above three PTX-DiD loaded micelle preparations in PBS. Ex vivo imaging of the excised organs and tumors were performed at 24 h after injection. […] The in vivo NIR images of a tumor bearing mouse treated with the DiD-PTX-PEG^5000CA8 was recorded over time (FIG. 35D). The accumulation of the DiD loaded micelles at the tumor site via the EPR effect began at 2 h after injection and continued to increase over the 24 h period.

CCCCCCCCCCCCCCCCCCN1C(=CC=CC=CC2=[N+](CCCCCCCCCCCCCCCCCC)c3ccccc3C2(C)C)C(C)(C)c2ccccc21.[O-][Cl+3]([O-])([O-])[O-] [DiD, 1,1′-dioctadecyl-3,3,3′,3′-tetramethylindo-dicarbocyanine perchlorate]
fluorescence distribution after i.p. injection [1]: declined to a level not distinguishable from background auto-fluorescence at 72 h
tumor targeting [2]: no tumor targeting was found
